Values of other authors as cited in patent EP0859828B2, “DELIVERY SYSTEMS” (THE PROCTER & GAMBLE COMPANY, priority 1995, dated 1997).

Settings: 25°C; cobalt pentaamine catalysts complexed with the named ligand

Molecule | base hydrolysis rates (kOH) [M⁻¹ s⁻¹]
CC(=O)O [acetate] | 0.00096
oxalate | 0.00025
